Molecules are shown by their SMILES. Structures can show the parent of a compound that is named as a salt.

The results in this text go back to patent US20130079345A1, “[…] ACTIVE DISUBSTITUTED TRIAZINE DERIVATIVES” (BAYER INTELLECTUAL PROPERTY GMBH, priority 2010, published 2013).

Assay [1] deals with T1, CDK2/CyclinA (Homo sapiens, UniProt P24941).
T1 construct: purchased Proqinase
The assay is described as follows: LanthaScreen Eu Kinase Binding Assay, CDK2. As to conditions: tracer 236, read-out: Affinity (Kd) CDK2. In outline: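 TR-FRET competition binding with Alexa Fluor 647 tracer and Eu-anti-GST antibody; e.g. CDK2/Cyclin A 15 nM with tracer 236 60 nM (working solutions). Kinase buffer: HEPES 20 mM pH 8.0, MgCl2 10 mM, DTT 1 mM, Brij-35 0.01%; 8-point 1:3 series, 1 h at room temperature; Kd from sigmoidal dose-response curves.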

For assay [2], the target named is T1, CDK2/CyclinA. The assay is described as follows: Lance Ultra KinaSelect Assay, CDK2. It is filed as biochemical. As to conditions: ATP 3 μM, read-out: Inhibition (IC50) CDK2. The protocol:
This protocol describes how the Lance Ultra KinaSelect Assay was performed to determine half maximal inhibitory concentration (IC50) of compounds of general formula (I) and CDK/Cyclin complexes. The principle behind this enzymatic assay is based upon the phosphorylation of the ULight-Peptide Substrat. It is detected by using a specific EU-labeled anti-phospho peptide antibody. The binding of the Eu-labeled anti-phospho peptide antibody to the phosphorylated U Light labeled peptide gives rise to a FRET-signal. Binding of an inhibitor to the kinase prevents phosphorylation of the ULight-MBP Substrat, resulting in a loss of FRET.
The compounds of general formula (I) summarized in Table 5 were diluted from a 10 mM DMSO stock solution 1:10 in a total volume of 15 μL DMSO. This compound predilution was then serial diluted 1:3 over 8 steps in DMSO and briefly spun down. Each compound solution was now diluted 1:20 in Enzymatic Buffer (HEPES: 50 mM, pH: 7.5; MgCl2: 10 mM; EGTA: 1 mM; DTT: 2 mM; Tween-20: 0.01%), mixed thoroughly and spun down. For every sample, 2 μL of the diluted compound were mixed with 6 μL CDK/Cyclin/Substrat solution and […] in a well of a small volume 384 well plate (Corning Incorporated, Corning, N.Y., USA; order no. 3673). […] For positive controls, in each well 2 μL of DMSO solution (1% final DMSO assay concentration) was mixed with 6 μL CDK/Cyclin/Substrat (appropriate final concentration see Table 3) and 2 μL Tracer ATP solution (appropriate final concentration see Table 3). Positive and negative controls were calculated from at least 8 different sample wells. The 384 well plates were mixed in a Teleshaker plate mixer (Beckman Coulter, Brea, Calif., USA) at 2000 rpm for 40 sec, and incubated for 1 h at room temperature. Before reading, 10 μL detection buffer (Lance Detection Buffer 1×; EDTA: […]; Eu-Anti-P-MBP: see Table 3) was added. The FRET signal was measured at 340 nm excitation, 665 nm and 615 nm emission (for the kinase tracer and LanthaScreen Eu-AB, respectively) with an Envision spectrophotometer (Perkin Elmer, Waltham, Mass., USA) with 50 μs delay and 300 μs integration time. IC50 values were determined from the sigmoidal dose response curves with the software Quattro Workflow (Quattro GmbH, Munich, Germany).

Take `COc1ccccc1-c1ncnc(Nc2cccc(CS(N)(=O)=O)c2)n1` [B1′, 3-[(4-(2-Methoxyphenyl)-1,3,5-triazin-2-yl)amino]benzenemethanesulfonamide trifluoroacetic acid salt]: the Kd in assay [1] was 798 nM. Further, the 50% inhibitory concentration (IC50) in assay [2] worked out at 3080 nM. `COc1cc(F)ccc1-c1ncnc(Nc2cccc(CS(N)(=O)=O)c2)n1` [B2′, 1-(3-{[4-(4-fluoro-2-methoxyphenyl)-1,3,5-triazin-2-yl]amino}phenyl)methanesulfonamide hydrochloride]: in assay [1], the Kd was determined as 207 nM. As for `COc1cc(F)ccc1-c1ncnc(Nc2cccc(CS(N)(=O)=O)c2)n1` [B2″, 1-(3-{[4-(4-fluoro-2-methoxyphenyl)-1,3,5-triazin-2-yl]amino}phenyl)methanesulfonamide trifluoroacetic acid salt], in assay [2], the concentration for half-maximal inhibition (IC50) was 568 nM. Consider `NS(=O)(=O)Cc1cccc(Nc2ncnc(-c3ccccc3OCc3ccccc3)n2)c1` [B13′, 3-[(4-(2-Benzyloxyphenyl)-1,3,5-triazin-2-yl)amino]benzenemethanesulfonamide trifluoroacetic acid salt], for which the Kd in assay [1] turned out to be 88 nM. The concentration for half-maximal inhibition (IC50) in assay [2] turned out to be 1770 nM. Turning to `COc1ccccc1-c1ncnc(Nc2cccc(S(N)(=O)=O)c2)n1` [C1′, 3-[(4-(2-Methoxyphenyl)-1,3,5-triazin-2-yl)amino]benzenesulfonamide trifluoroacetic acid salt], the Kd in assay [1] is 220 nM. Further, the half-maximal inhibitory concentration (IC50) in assay [2] is 781 nM.

`COc1ccc(F)cc1-c1ncnc(Nc2cccc(CS(N)(=O)=O)c2)n1` [Compound B3, 3-[(4-(5-Fluoro-2-methoxyphenyl)-1,3,5-triazin-2-yl)amino]benzenemethanesulfonamide]: in assay [1], the Kd worked out at 375 nM. For the compound `COc1cccc(F)c1-c1ncnc(Nc2cccc(CS(N)(=O)=O)c2)n1` [Compound B4, 3-[(4-(6-Fluoro-2-methoxyphenyl)-1,3,5-triazin-2-yl)amino]benzenemethanesulfonamide], in assay [1], the equilibrium dissociation constant (Kd) was 704 nM. Further, the half-inhibitory concentration (IC50) in assay [2] is 1440 nM. Turning to `COc1cc(Cl)ccc1-c1ncnc(Nc2cccc(CS(N)(=O)=O)c2)n1` [Compound B6, 3-[(4-(4-Chloro-2-methoxyphenyl)-1,3,5-triazin-2-yl)amino]benzenemethanesulfonamide], the half-maximal inhibitory concentration (IC50) in assay [2] was over 10000 nM. On to `CCOc1ccccc1-c1ncnc(Nc2cccc(CS(N)(=O)=O)c2)n1` [Compound B12, 3-[(4-(2-Ethoxyphenyl)-1,3,5-triazin-2-yl)amino]benzenemethanesulfonamide], for which the Kd in assay [1] worked out at 2350 nM. In addition, the IC50 in assay [2] was 2930 nM. As to `NS(=O)(=O)Cc1cccc(Nc2ncnc(-c3ccccc3OCc3ccccc3)n2)c1` [Compound B13, 3-[(4-(2-Benzyloxyphenyl)-1,3,5-triazin-2-yl)amino]benzenemethanesulfonamide], the Kd in assay [1] came to 687 nM.

Take `NS(=O)(=O)Cc1cccc(Nc2ncnc(-c3ccccc3Oc3ccccc3)n2)c1` [Compound B14, 1-(3-{[4-(2-phenoxyphenyl)-1,3,5-triazin-2-yl]amino}phenyl)methanesulfonamide]: in assay [1], the equilibrium dissociation constant (Kd) amounted to 3450 nM. For the compound `NS(=O)(=O)Cc1cccc(Nc2ncnc(-c3ccccc3OCc3ccncc3)n2)c1` [Compound B16, 3-[(4-(2-((4-Pyridinyl)methoxy)phenyl)-1,3,5-triazin-2-yl)amino]benzenemethanesulfonamide], the Kd in assay [1] is 1690 nM. In assay [2], the 50% inhibitory concentration (IC50) stood at 1070 nM. For `COc1ccccc1-c1ncnc(Nc2cccc(CCS(N)(=O)=O)c2)n1` [Compound D1, 2-[3-((4-(2-Methoxyphenyl)-1,3,5-triazin-2-yl)amino)phenyl]ethanesulfonamide], the Kd in assay [1] came out at 310 nM. In addition, the IC50 in assay [2] is 515 nM. For `COc1cc(F)ccc1-c1ncnc(Nc2cccc(CCS(N)(=O)=O)c2)n1` [Compound D2, 2-[3-((4-(4-Fluoro-2-methoxyphenyl)-1,3,5-triazin-2-yl)amino)phenyl]ethanesulfonamide] the same measures were under 5 nM and 423 nM. On to `COc1ccccc1-c1ncnc(Nc2cccc([N+](=O)[O-])c2)n1` [Compound H1, 4-(2-Methoxyphenyl)-N-(3-nitrophenyl)-1,3,5-triazine-2-amine], for which the Kd in assay [1] came out at 68 nM. As to `COc1ccccc1-c1ncnc(Nc2cccc(NS(C)(=O)=O)c2)n1` [Compound K1, N-[3-((4-(2-Methoxyphenyl)-1,3,5-triazin-2-yl)amino)phenyl]-methanesulfonamide], the dissociation constant (Kd) in assay [1] was 283 nM. The IC50 in assay [2] came out at 826 nM.

Take `CCCS(=O)(=O)Nc1cccc(Nc2ncnc(-c3ccccc3OC)n2)c1` [Compound L1, N-[3-((4-(2-Methoxyphenyl)-1,3,5-triazin-2-yl)amino)phenyl]-propanesulfonamide]: the IC50 in assay [2] is over 10000 nM. With `COc1ccccc1-c1ncnc(Nc2ccccc2)n1` [Compound P1, 4-(2-Methoxyphenyl)-N-phenyl-1,3,5-triazine-2-amine], the dissociation constant (Kd) in assay [1] was 709 nM.
